The record followed here is patent US11446298B2, “Pyrimidine derivatives” (Idorsia Pharmaceuticals Ltd, priority 2017, dated 2022).

Broadly, the IC50 is the point on the concentration scale where inhibition reaches its midpoint.

What all share (type): cell-based
Test [1] addresses T1, PTGER4 (EP4) (Homo sapiens, UniProt P35408).
T1 construct: host or cells: HEK 293 (PathHunter, stably transfected)
Kind of test: hEP4 b-Arrestin Assay (PathHunter HEK 293 PTGER4 b-arrestin cells, PGE2 20 nM). To be noted: antagonistic activity, beta-arrestin assay, HEK 293 PTGER4 cells, PGE2 20 nM (EC80); read-out: hEP4 b-arr IC50. The procedure:
The antagonistic activities of the compounds of formula (I) on the EP2 and EP4 receptors are also determined in accordance with the following experimental method.
The assay is using the PathHunter™ HEK 293 PTGER2 and PTGER4 b-arrestin cell lines from DiscoverX. The system is based on the Enzyme Fragment Complementation Technology. Two complementing fragments of the b-galactosidase enzyme are expressed within stably transfected cells. The larger portion of b-gal, termed EA for Enzyme Acceptor, is fused to the C-terminus of b-arrestin 2. The smaller fragment, termed ProLink™ tag, is fused to PTGER2 (EP2) or PTRGER4 (EP4) at the C-terminus. Upon activation, b-arrestin is recruited which forces the interaction of ProLink and EA, allowing complementation of the two fragments of b-gal and the formation of a functional enzyme which is capable of hydrolysing the substrate and generating a chemiluminescent signal.
The HEK 293 PTGER4 b-arrestin cells (DiscoverX 93-030-4C1) are detached from culture dishes with a cell dissociation buffer (Invitrogen, 13151-014), and collected in growing medium (GM: DMEM+Glutamax-I (Invitrogen 32430)/10% FCS, 1% Penicilin/streptomycin). 5000 cells per well of a 384 well plate (white with white bottom Greiner 781080) are seeded in 20 ul per well of GM. Plate is incubated at 37° C., 5% CO2 for 24 hours.
Stock solutions of test compounds are made at a concentration of 10 mM in DMSO, and serially diluted in DMSO to concentrations required for inhibition dose response curves (tested concentration range 10 μM-2 nM or 1 μM-0.2 nM).
PGE2 (Cayman 14010, stock solution: 100 μM in DMSO) is used as agonist at 20 nM final concentration, corresponding to EC80.
Five microliters of diluted compounds are transferred into the assay plate. Plate is pre-incubated 15 minutes at 37° C. Then five microliters of PGE2 (final conc. 20 nM) are transferred into the assay plate. Plate is incubated 120 minutes at 37° C.
PathHunter Glo Detection Kit components are thawed and mix according to manufacturer's instructions: 1 part Galacton Star Substrate with 5 parts Emerald II™ Solution, and 19 parts of PathHunter Cell Assay Buffer, respectively. Twelve μl of reagent are transferred to the assay plate and incubate for 1 hour at room temperature in the dark. Luminescence counts are read on a BMG Fluostar Optima reader according to manufacturer's instructions.
For each compound concentration calculate of the percentage of activity compared to DMSO control value as average ±STDEV. (each concentration is measured in duplicate)
IC50 values and curves are generated with XLfit software (IDBS) using Dose-Response One Site model 203. When compounds were measured multiple times, mean values are given.

The target in test [2] is T2, PTGER2 (EP2) (Homo sapiens, UniProt P43116).
T2 construct: host or cells: HEK 293 (PathHunter, stably transfected)
The experiment in a line: hEP2 b-Arrestin Assay (PathHunter HEK 293 PTGER2 b-arrestin cells, PGE2 5 μM). Particulars: antagonistic activity, beta-arrestin assay, HEK 293 PTGER2 cells, PGE2 5 μM (EC80); read-out: hEP2 b-arr IC50. The gist of the method:
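PathHunter enzyme-fragment complementation in HEK 293 cells: compounds (10 μM-2 nM or 1 μM-0.2 nM) pre-incubated 15 min at 37 °C, then 5 μM PGE2 (EC80) for 120 min at 37 °C. Chemiluminescence read after 1 h detection; IC50 from duplicate dose-response fits, means of repeats.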

Test [3] concerns the target T3, EP4 (Homo sapiens, UniProt P35408).
T3 construct: BT549 breast cancer cells, express high endogenous EP4 levels and very low EP2 levels; host or cells: BT549 breast cancer cells
Kind of test: hEP4 cAMP Assay (BT549 breast cancer cells, HTRF cAMP, PGE2 6 nM). Particulars: antagonistic activity, PGE2 6 nM (EC80). The gist of the method: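 BT549 cells (endogenous EP4, very low EP2) in HBSS/20 mM HEPES/0.2% BSA/2 mM IBMX, pre-incubated 45 min RT with compound, then stimulated 30 min RT with PGE2 6 nM (EC80). cAMP read by HTRF competitive immunoassay (665/620 nm), converted via calibrator to % of DMSO control; IC50 from duplicate dose-response curves.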

For test [4], the target named is T4, EP2 (Homo sapiens, UniProt P43116).
T4 construct: SF295 glioblastoma cells express high endogenous EP2 and no EP4; host or cells: SF295 glioblastoma cells
The experiment in a line: hEP2 cAMP Assay (SF295 glioblastoma cells, HTRF cAMP, PGE2 75 nM). Particulars: antagonistic activity, PGE2 75 nM (EC80). The gist of the method:
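IC50 values derive from duplicate-point curves of percent cAMP relative to DMSO, read by HTRF (665/620 nm) against a cAMP calibrator. Compounds (30 μM to 0.01 nM ranges) were given 45 min at room temperature before 30 min with 75 nM PGE2, in EP2-only SF295 cells with 2 mM IBMX.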
On the technique in general: TR-FRET usually uses a lanthanide donor and a delayed reading to cut background.

T4 sequence (P43116 whole entry): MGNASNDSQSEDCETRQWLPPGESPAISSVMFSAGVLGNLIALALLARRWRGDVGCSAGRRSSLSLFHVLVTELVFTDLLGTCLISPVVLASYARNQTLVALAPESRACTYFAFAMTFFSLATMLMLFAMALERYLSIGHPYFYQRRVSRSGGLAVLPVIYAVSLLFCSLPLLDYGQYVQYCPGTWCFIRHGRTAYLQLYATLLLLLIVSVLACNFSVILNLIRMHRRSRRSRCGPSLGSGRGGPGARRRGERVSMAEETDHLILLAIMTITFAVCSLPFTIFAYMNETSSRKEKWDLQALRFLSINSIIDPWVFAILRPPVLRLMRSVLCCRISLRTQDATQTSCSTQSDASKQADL
T2 sequence (P43116 whole entry): as above
T3 sequence (P35408 whole entry): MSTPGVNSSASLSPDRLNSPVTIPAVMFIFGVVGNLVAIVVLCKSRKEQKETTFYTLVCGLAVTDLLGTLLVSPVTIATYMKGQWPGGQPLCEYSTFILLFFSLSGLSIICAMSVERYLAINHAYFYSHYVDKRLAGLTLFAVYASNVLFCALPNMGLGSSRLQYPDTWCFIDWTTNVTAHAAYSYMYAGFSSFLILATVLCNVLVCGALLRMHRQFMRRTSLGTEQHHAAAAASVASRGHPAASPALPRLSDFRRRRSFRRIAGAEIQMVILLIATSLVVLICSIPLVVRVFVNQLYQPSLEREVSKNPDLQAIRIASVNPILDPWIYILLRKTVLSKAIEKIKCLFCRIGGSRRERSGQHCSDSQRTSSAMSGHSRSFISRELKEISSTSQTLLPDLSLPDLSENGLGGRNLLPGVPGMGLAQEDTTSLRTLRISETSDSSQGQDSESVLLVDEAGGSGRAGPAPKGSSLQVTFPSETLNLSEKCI
T1 sequence (P35408 whole entry): as above

As for `CCOc1cc(-c2cc(NCCc3c(OC)ccc4ccccc34)ncn2)sc1C(=O)NS(C)(=O)=O` [Example 136, N-(3-Ethoxy-5-{6-[2-(2-methoxy-naphthalen-1-yl)-ethylamino]-pyrimidin-4-yl}-thiophene-2-carbonyl)-methanesulfonamide], the IC50 in test [1] stood at 24 nM; in test [2], 3 nM; in test [3], 86 nM; in test [4], 10 nM.

As to `CCOc1cc(-c2cc(NCCc3cccc4cc[nH]c34)ncn2)sc1-c1noc(=O)[nH]1` [Example 143, 3-(3-Ethoxy-5-{6-[2-(1H-indol-7-yl)-ethylamino]-pyrimidin-4-yl}-thiophen-2-yl)-[1,2,4]oxadiazol-5(4H)-one], the 50% inhibitory concentration (IC50) in test [1] was found to be 21 nM; in test [2], 31 nM; in test [3], 105 nM; in test [4], 90 nM.

For the molecule `CCOc1cc(-c2cc(NCCc3cccc4cccnc34)ncn2)sc1-c1noc(=O)[nH]1` [Example 140, 3-{3-Ethoxy-5-[6-(2-quinolin-8-yl-ethylamino)-pyrimidin-4-yl]-thiophen-2-yl}-[1,2,4]oxadiazol-5(4H)-one], the half-inhibitory concentration (IC50) in test [1] was found to be 15 nM; in test [2], 119 nM; in test [3] it was 17 nM; in test [4] it was 142 nM.

`CCOc1cc(-c2cc(NCCc3cccc4c(F)cccc34)ncn2)ccc1CC(=O)O` [Example 163, (2-Ethoxy-4-{6-[2-(5-fluoro-naphthalen-1-yl)-ethylamino]-pyrimidin-4-yl}-phenyl)-acetic acid]: the IC50 was determined as 294 nM in test [1], 80 nM in test [2], 180 nM in test [3] and 202 nM in test [4].

With `CCOc1cc(-c2cc(NCCc3c(OC)ccc4ccccc34)ncn2)sc1CCC(=O)O` [Example 131, 3-(3-Ethoxy-5-{6-[2-(2-methoxy-naphthalen-1-yl)-ethylamino]-pyrimidin-4-yl}-thiophen-2-yl)-propionic acid], the half-inhibitory concentration (IC50) in test [1] came out at 88 nM; in test [2], 54 nM; in test [3], 157 nM; in test [4], 73 nM.

`CCOc1cc(-c2cc(NCCc3c(OC)ccc4ccccc34)ncn2)ccc1-c1nnn[nH]1` [Example 125, {6-[3-Ethoxy-4-(1H-tetrazol-5-yl)-phenyl]-pyrimidin-4-yl}-[2-(2-methoxy-naphthalen-1-yl)-ethyl]amine]: the concentration for half-maximal inhibition (IC50) amounted to 29 nM in test [1], 8 nM in test [2], 29 nM in test [3] and 24 nM in test [4].

As for `CCOc1cc(-c2cc(NCCc3cccc4ccccc34)ncn2)sc1C(=O)O` [Example 9, 3-Ethoxy-5-[6-(2-naphthalen-1-yl-ethylamino)-pyrimidin-4-yl]-thiophene-2-carboxylic acid], the IC50 was found to be 56 nM in test [1], 11 nM in test [2], 14 nM in test [3] and 9 nM in test [4].

As for `CCOc1cc(-c2cc(NCCc3c(C)ccc4ccccc34)ncn2)sc1C(=O)O` [Example 1, 3-Ethoxy-5-{6-[2-(2-methyl-naphthalen-1-yl)-ethylamino]-pyrimidin-4-yl}-thiophene-2-carboxylic acid], the IC50 was 177 nM in test [1], 5 nM in test [2], 47 nM in test [3] and 4 nM in test [4].

Turning to `CCOc1cc(-c2cc(NCCc3c(OC)ccc4ncccc34)ncn2)sc1-c1noc(=O)[nH]1` [Example 142, 3-(3-Ethoxy-5-{6-[2-(6-methoxy-quinolin-5-yl)-ethylamino]-pyrimidin-4-yl}-thiophen-2-yl)-[1,2,4]oxadiazol-5(4H)-one], the half-maximal inhibitory concentration (IC50) in test [1] was found to be 10 nM; in test [2], 7 nM; in test [3], 27 nM; in test [4], 40 nM.

Regarding `COc1ccc2ccccc2c1CCNc1cc(-c2ccc(-c3cc(O)no3)cc2)ncn1` [Example 134, 5-(4-{6-[2-(2-Methoxy-naphthalen-1-yl)-ethylamino]-pyrimidin-4-yl}-phenyl)-isoxazol-3-ol], the half-inhibitory concentration (IC50) in test [1] stood at 280 nM; in test [2], 8 nM; in test [3], 351 nM; in test [4] it was 91 nM.

With `CCOc1cc(-c2cc(NCCc3ccc(C#N)c4ccccc34)ncn2)sc1C(=O)O` [Example 69, 5-{6-[2-(4-Cyano-naphthalen-1-yl)-ethylamino]-pyrimidin-4-yl}-3-ethoxy-thiophene-2-carboxylic acid], the IC50 in test [1] is 48 nM; in test [2] it was 78 nM; in test [3], 66 nM; in test [4], 79 nM.

On to `CCOc1cc(-c2cc(NCCc3cccc4c(C)c(C)n(C)c34)ncn2)sc1C(=O)O` [Example 29, 3-Ethoxy-5-{6-[2-(1,2,3-trimethyl-1H-indol-7-yl)-ethylamino]-pyrimidin-4-yl}-thiophene-2-carboxylic acid], for which the half-inhibitory concentration (IC50) was determined as 164 nM in test [1], 241 nM in test [2], 148 nM in test [3] and 136 nM in test [4].

Consider `CCc1nc(-c2cc(NCCc3c(OC)ccc4ccccc34)ncn2)sc1-c1noc(=O)[nH]1` [Example 190, 3-(4-Ethyl-2-{6-[2-(2-methoxy-naphthalen-1-yl)-ethylamino]-pyrimidin-4-yl}-thiazol-5-yl)-[1,2,4]oxadiazol-5(4H)-one], for which the IC50 in test [1] came out at 34 nM; in test [2] it was 13 nM; in test [3], 1250 nM; in test [4], 8 nM.

With `CCOc1cc(-c2cc(NCCc3c(OCC)ccc4ccccc34)ncn2)ccc1C(=O)O` [Example 179, 2-Ethoxy-4-{6-[2-(2-ethoxy-naphthalen-1-yl)-ethylamino]-pyrimidin-4-yl}-benzoic acid], the half-maximal inhibitory concentration (IC50) in test [1] came out at 934 nM; in test [2], 4 nM; in test [3], 1500 nM; in test [4], 8 nM.

With `CCOc1cc(-c2cc(NCCc3c(OC)ccc4ccccc34)ncn2)sc1/C=C/C(=O)O` [Example 118, (E)-3-(3-Ethoxy-5-{6-[2-(2-methoxy-naphthalen-1-yl)-ethylamino]-pyrimidin-4-yl}-thiophen-2-yl)-acrylic acid], the concentration for half-maximal inhibition (IC50) worked out at 12 nM in test [1], 11 nM in test [2], 55 nM in test [3] and 94 nM in test [4].

In the case of `CCOc1cc(-c2cc(NCCc3cccc4c3ccn4C)ncn2)sc1C(=O)O` [Example 25, 3-Ethoxy-5-{6-[2-(1-methyl-1H-indol-4-yl)-ethylamino]-pyrimidin-4-yl}-thiophene-2-carboxylic acid], the half-inhibitory concentration (IC50) in test [1] is 145 nM; in test [2], 15 nM; in test [3] it was 48 nM; in test [4] it was 15 nM.

`CCOc1cc(-c2cc(NCCc3c(OC)ccc4c3CCO4)ncn2)sc1C(=O)O` [Example 34, 3-Ethoxy-5-{6-[2-(5-methoxy-2,3-dihydro-benzofuran-4-yl)-ethylamino]-pyrimidin-4-yl}-thiophene-2-carboxylic acid]: the IC50 in test [1] was 114 nM; in test [2], 39 nM; in test [3] it was 152 nM; in test [4], 64 nM.
